Counter-ions that a name gives are not always drawn.
Legend:
[1] = molecular target: human plasma kallikrein (Homo sapiens, UniProt P03952); assay: biochemical; settings: purified human plasma kallikrein, substrate S-2302, sodium phosphate buffer pH 7.5
[2] = molecular target: human Factor XIa (Homo sapiens, UniProt P03951); assay: biochemical; settings: purified human Factor XIa, substrate S-2366, HEPES buffer pH 7.4
Sequence of human Factor XIa (P03951 388-625 limits assumed): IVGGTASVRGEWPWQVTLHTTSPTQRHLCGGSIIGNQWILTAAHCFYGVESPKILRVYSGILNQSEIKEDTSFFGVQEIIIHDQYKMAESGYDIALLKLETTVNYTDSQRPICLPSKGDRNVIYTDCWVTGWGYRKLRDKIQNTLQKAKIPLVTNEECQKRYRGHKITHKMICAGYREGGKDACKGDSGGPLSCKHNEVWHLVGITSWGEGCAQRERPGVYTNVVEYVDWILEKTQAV
Sequence of human Factor XIa (P03951 19-387 partner limits assumed): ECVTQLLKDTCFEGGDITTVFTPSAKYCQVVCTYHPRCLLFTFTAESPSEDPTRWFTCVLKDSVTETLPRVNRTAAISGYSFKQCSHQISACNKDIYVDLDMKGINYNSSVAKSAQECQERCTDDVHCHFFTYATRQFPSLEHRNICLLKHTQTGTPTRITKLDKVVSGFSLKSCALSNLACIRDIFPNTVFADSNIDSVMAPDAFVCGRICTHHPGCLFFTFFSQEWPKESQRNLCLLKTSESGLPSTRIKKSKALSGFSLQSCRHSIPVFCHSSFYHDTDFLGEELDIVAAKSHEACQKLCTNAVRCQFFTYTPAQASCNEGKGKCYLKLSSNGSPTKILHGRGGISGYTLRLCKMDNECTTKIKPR

Sequence of human plasma kallikrein (P03952 391-638 limits assumed): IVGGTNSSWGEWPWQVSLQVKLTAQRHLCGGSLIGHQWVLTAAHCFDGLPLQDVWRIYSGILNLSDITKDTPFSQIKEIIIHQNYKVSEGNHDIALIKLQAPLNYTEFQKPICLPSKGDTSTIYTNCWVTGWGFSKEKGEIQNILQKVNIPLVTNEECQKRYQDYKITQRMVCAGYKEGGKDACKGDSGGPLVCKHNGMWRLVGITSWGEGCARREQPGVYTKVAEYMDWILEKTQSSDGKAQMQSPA
Sequence of human plasma kallikrein (P03952 20-390 partner limits assumed): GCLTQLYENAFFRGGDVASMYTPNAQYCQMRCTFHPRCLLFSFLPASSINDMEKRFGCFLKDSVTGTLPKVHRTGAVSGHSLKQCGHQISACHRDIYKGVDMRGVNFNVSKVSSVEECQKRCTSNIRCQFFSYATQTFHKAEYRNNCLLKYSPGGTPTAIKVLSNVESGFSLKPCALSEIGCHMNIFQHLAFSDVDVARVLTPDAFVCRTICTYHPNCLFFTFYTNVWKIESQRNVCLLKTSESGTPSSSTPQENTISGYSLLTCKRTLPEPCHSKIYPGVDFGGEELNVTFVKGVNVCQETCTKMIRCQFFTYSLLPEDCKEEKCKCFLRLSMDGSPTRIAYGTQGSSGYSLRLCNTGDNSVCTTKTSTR

Ki [1] [nM]	Ki [2] [nM]	SMILES
100	1.6	C[C@H]1CCC[C@H](n2cnc(-c3cc(Cl)ccc3-n3cc(C(F)(F)F)nn3)cc2=O)c2ccnc(c2)-c2cc(F)ccc2NC1=O [Example 145, (10S,14S)-14-(4-{5-chloro-2-[4-(trifluoromethyl)-1H-1,2,3-triazol-1-yl]phenyl}-6-oxo-1,6-dihydropyrimidin-1-yl)-4-fluoro-10-methyl-8,18-diazatricyclo[13.3.1.0^2,7]nonadeca-1(19),2,4,6,15,17-hexaen-9-one]
4000	100	C[C@@H]1CCC[C@H](n2cnc(-c3cc(Cl)ccc3-n3cc(Cl)nn3)cc2=O)c2cc(ccn2)-c2ccc(OC(F)F)cc2NC1=O [Example 93, (10R,14S)-14-{4-[5-chloro-2-(4-chloro-1H-1,2,3-triazol-1-yl)phenyl]-6-oxo-1,6-dihydropyrimidin-1-yl}-5-(difluoromethoxy)-10-methyl-8,16-diazatricyclo [13.3.1.0^2,7]nonadeca-1(19),2(7),3,5,15,17-hexaen-9-one trifluoroacetate]
176	1.9	Cc1ccc(-n2cc(C(F)(F)F)nn2)c(-c2cc(=O)n([C@H]3CCC[C@@H](C)C(=O)Nc4cc(C#N)ccc4-c4ccnc3c4)cn2)c1 [Example 82, (10R,14S)-10-methyl-14-(4-{5-methyl-2-[4-(trifluoromethyl)-1H-1,2,3-triazol-1-yl]phenyl}-6-oxo-1,6-dihydropyrimidin-1-yl)-9-oxo-8,16-diazatricyclo [13.3.1.0^2,7]nonadeca-1(19),2(7),3,5,15,17-hexaene-5-carbonitrile]

Further lines, the compound ahead of its results:

SMILES	Ki [1] [nM]	Ki [2] [nM]
COc1ccc(-n2cc(C(F)(F)F)nn2)c(-c2cc(=O)n([C@H]3CCC[C@@H](C)C(=O)Nc4ccc(F)cc4-c4cncc3c4)cn2)c1 [Example 107, (10R,14S)-4-Fluoro-14-(4-{5-methoxy-2-[4-(trifluoromethyl)-1H-1,2,3-triazol-1-yl]phenyl}-6-oxo-1,6-dihydropyrimidin-1-yl)-10-methyl-8,17-diazatricyclo[13.3.1.0^2,7]nonadeca-1(19),2(7),3,5,15,17-hexaen-9-one]	1400	142
C[C@@H]1CCC[C@H](n2cnc(-c3c(-n4cc(Cl)nn4)ccc(Cl)c3F)cc2=O)c2cc(ccn2)-c2cc(F)ccc2NC1=O [Example 142, (10R,14S)-14-{4-[3-chloro-6-(4-chloro-1H-1,2,3-triazol-1-yl)-2-fluorophenyl]-6-oxo-1,6-dihydropyrimidin-1-yl}-4-fluoro-10-methyl-8,16-diazatricyclo [13.3.1.0^2,7]nonadeca-1(19),2(7),3,5,15,17-hexaen-9-one trifluoroacetate]	7	1
C[C@@H]1CCC[C@H](n2cnc(-c3cc(Cl)ccc3-n3cc(C(F)(F)F)nn3)cc2=O)c2cc(ccn2)-c2ccc(CO)cc2NC1=O [Example 37, (10R,14S)-14-(4-{5-chloro-2-[4-(trifluoromethyl)-1H-1,2,3-triazol-1-yl]phenyl}-6-oxo-1,6-dihydropyrimidin-1-yl)-5-(hydroxymethyl)-10-methyl-8,16-diazatricyclo[13.3.1.0^2,7]nonadeca-1(19),2(7),3,5,15,17-hexaen-9-one trifluoroacetate]	18	0.18
C[C@@H]1CCC[C@H](n2cnc(-c3cc(Cl)ccc3-n3cc(Cl)nn3)cc2=O)c2ccnc(c2)-c2ccc(C#N)cc2NC1=O [Example 112, (10R,14S)-14-{4-[5-chloro-2-(4-chloro-1H-1,2,3-triazol-1-yl)phenyl]-6-oxo-1,6-dihydropyrimidin-1-yl}-10-methyl-9-oxo-8,18-diazatricyclo [13.3.1.0^2,7]nonadeca-1(19),2(7),3,5,15,17-hexaene-5-carbonitrile]	19	0.22
C[C@@H]1CCC[C@H](n2cnc(-c3cc(Cl)ccc3-n3cc(C(F)(F)F)nn3)cc2=O)c2cc(ccn2)-c2ccc(C(N)=O)cc2NC1=O [Example 76, (10R,14S)-14-(4-{5-chloro-2-[4-(trifluoromethyl)-1H-1,2,3-triazol-1-yl]phenyl}-6-oxo-1,6-dihydropyrimidin-1-yl)-10-methyl-9-oxo-8,16-diazatricyclo [13.3.1.0^2,7]nonadeca-1(19),2(7),3,5,15,17-hexaene-5-carboxamide]	36	0.44
